Here are results for 27 compounds from patent publication US9346812B2, “Substituted pyrrolopyrimidine compounds, compositions thereof, and methods of treatment therewith” (Signal Pharmaceutical LLC, priority 2013, dated 2016).

For the assay, the system named is CAL51 cell proliferation. Description: Cell Titer Glo Proliferation Assay (CAL51). It counts as cell-based, human. The following applies: Homo sapiens, CAL-51; CAL51 cell proliferation, 72 h, Cell Titer Glo luminescence; read-out: Act. Level. As for the experimental part:
Cell Titer Glo Proliferation Assay. Triple negative breast cancer cell line CAL51 was purchased from DSMZ. […] Allcell lines were maintained in growth media consisting of 90% high glucose Dulbecco's Modified Eagle Medium or RPMI1640 (Invitrogen), 10% fetal bovine serum (Hyclone), and 2 mM L-glutamine (Invitrogen). […] After overnight culture, compound stock (30 mM) was diluted serially in DMSO, further diluted in growth media, and was added to each well as a 10× concentrated solution in a volume of 11 μL, mixed, and allowed to incubate with cells. The compound vehicle (DMSO) was maintained at a final concentration of 0.2% in all wells. After 72 h, 100 μL of Cell Titer Glo solution (Promega) was added to each well of the 96-well plate. The plate was placed on a shaker for 2 minutes. After 10 minutes incubation, the luminescence signal was detected with Envision microplate reader (Perkin Elmer).
(ATP-based viability assays read luminescence as a measure of living cells.)

Structures are written as SMILES. Bounds are passed on as bounds.

Regarding `COc1cc(C(=O)N(C)CCO)ccc1Nc1nc(OC2CCCC2)c2c(-c3ccc4nc(C)oc4c3)c[nH]c2n1` [Example 233, 4-(4-(cyclopentyloxy)-5-(2-methylbenzo[d]oxazol-6-yl)-7H-pyrrolo[2,3-d]pyrimidin-2-ylamino)-N-(2-hydroxyethyl)-3-methoxy-N-methylbenzamide], the IC50 was below 100 nM.
The figure for `C[C@H](O)c1cccc(-c2c[nH]c3nc(Nc4ccc(C(=O)N(C)C)cc4Cl)nc(NC4CCOCC4)c23)c1` [Example 85, (S)-3-chloro-4-(5-(3-(1-hydroxy-ethyl)phenyl)-4-(tetrahydro-2H-pyran-4-ylamino)-7H-pyrrolo[2,3-d]pyrimidin-2-ylamino)-N,N-dimethylbenzamide] is below 100 nM; for `CNC(=O)c1ccc(Nc2nc(O[C@H]3CC[C@H](O)CC3)c3c(-c4ccc5nc(C)oc5c4)c[nH]c3n2)c(OC)c1` [Example 137, 4-(4-((1r,4r)-4-hydroxycyclo-hexyloxy)-5-(2-methylbenzo[d]oxazol-6-yl)-7H-pyrrolo[2,3-d]pyrimidin-2-ylamino)-3-methoxy-N-methylbenzamide] it is below 100 nM.
On to `CNC(=O)c1ccc(Nc2nc(OC3CCOCC3)c3c(-c4ccc5nc(C)oc5c4)c[nH]c3n2)c(OC(F)(F)F)c1` [Example 192, N-methyl-4-(5-(2-methylbenzo[d]oxazol-6-yl)-4-(tetrahydro-2H-pyran-4-yloxy)-7H-pyrrolo[2,3-d]pyrimidin-2-ylamino)-3-(trifluoromethoxy)benzamide], for which the IC50 was in the range of 100 to 400 nM.
Regarding `COc1cc(C(=O)N(C)C2COC2)ccc1Nc1nc(OC2CCCC2)c2c(-c3ccc4nc(C)oc4c3)c[nH]c2n1` [Example 272, 4-(4-(cyclopentyloxy)-5-(2-methylbenzo[d]oxazol-6-yl)-7H-pyrrolo[2,3-d]pyrimidin-2-ylamino)-3-methoxy-N-methyl-N-(oxetan-3-yl)benzamide], the IC50 was below 100 nM.
Under `CCOc1ccc(-c2c[nH]c3nc(Nc4ccc(C(=O)NC)cc4OC)nc(OC4CCOCC4)c23)cn1` [Example 102, 4-(5-(6-ethoxypyridin-3-yl)-4-(tetrahydro-2H-pyran-4-yloxy)-7H-pyrrolo[2,3-d]pyrimidin-2-ylamino)-3-methoxy-N-methylbenzamide] stands 100 to 400 nM; under `CNC(=O)c1ccc(Nc2nc(O[C@H]3CC[C@](C)(O)CC3)c3c(-c4ccc5nc(C)oc5c4)c[nH]c3n2)c(OC)c1` [Example 205, 4-(4-((1r,4r)-4-hydroxy-4-methylcyclohexyloxy)-5-(2-methylbenzo[d]oxazol-6-yl)-7H-pyrrolo[2,3-d]pyrimidin-2-ylamino)-3-methoxy-N-methylbenzamide], below 100 nM; under `CNC(=O)c1ccc(Nc2nc(OC3CCOCC3)c3c(-c4ccc5nc(C)sc5c4)c[nH]c3n2)c(OC)c1` [Example 223, 3-methoxy-N-methyl-4-(5-(2-methylbenzo[d]thiazol-6-yl)-4-(tetrahydro-2H-pyran-4-yloxy)-7H-pyrrolo[2,3-d]pyrimidin-2-ylamino)benzamide], below 100 nM.
The figure for `CNC(=O)c1ccc(Nc2nc(OC3CCCC3)c3c(-c4ccc5cn[nH]c5c4)c[nH]c3n2)c(OC)c1` [Example 25, 4-(4-(cyclopentyloxy)-5-(1H-indazol-6-yl)-7H-pyrrolo[2,3-d]pyrimidin-2-ylamino)-3-methoxy-N-methylbenzamide] is 100 to 400 nM; for `CNC(=O)c1ccc(Nc2nc(OC3CCOCC3)c3c(-c4ccc5nc(C)oc5c4C)c[nH]c3n2)c(OC)c1` [Example 135, 4-(5-(2,7-dimethylbenzo[d]oxazol-6-yl)-4-(tetrahydro-2H-pyran-4-yloxy)-7H-pyrrolo[2,3-d]pyrimidin-2-ylamino)-3-methoxy-N-methylbenzamide] it is 1000 to 10000 nM; for `Cc1cc(C(=O)N(C)C)ccc1Nc1nc(OC2CCOCC2)c2c(-c3cncnc3)c[nH]c2n1` [Example 107, N,N,3-trimethyl-4-(5-(pyrimidin-5-yl)-4-(tetrahydro-2H-pyran-4-yloxy)-7H-pyrrolo[2,3-d]pyrimidin-2-ylamino)benzamide] it is 100 to 400 nM.
The figure for `CC[C@@H](C)Oc1nc(Nc2ccc(C(=O)NC)cc2OC)nc2[nH]cc(-c3ccc4nc(C)oc4c3)c12` [Example 203, (R)-4-(4-sec-butoxy-5-(2-methylbenzo[d]oxazol-6-yl)-7H-pyrrolo[2,3-d]pyrimidin-2-ylamino)-3-methoxy-N-methylbenzamide] is 100 to 400 nM.
Turning to `CNC(=O)c1ccc(-c2c[nH]c3nc(Nc4ccc(C(=O)NC)cc4OC)nc(O[C@H]4CCOC4)c23)cc1` [Example 182, (S)-3-methoxy-N-methyl-4-(5-(4-(methylcarbamoyl)phenyl)-4-(tetrahydrofuran-3-yloxy)-7H-pyrrolo[2,3-d]pyrimidin-2-ylamino)benzamide], the IC50 was below 100 nM.
Consider `CNC(=O)c1ccc(Nc2nc(OC)c3c(-c4ccc(OC)nc4)c[nH]c3n2)c(OC)c1` [Example 118, 3-methoxy-4-(4-methoxy-5-(6-methoxypyridin-3-yl)-7H-pyrrolo [2,3-d]pyrimidin-2-ylamino)-N-methylbenzamide], for which the IC50 was 100 to 400 nM.
In the case of `CNC(=O)c1ccc(Nc2nc(OC(C)C)c3c(-c4ccn(C)n4)c[nH]c3n2)c(OC)c1` [Example 220, 4-(4-isopropoxy-5-(1-methyl-1H-pyrazol-3-yl)-7H-pyrrolo[2,3-d]pyrimidin-2-ylamino)-3-methoxy-N-methylbenzamide], the IC50 lay within 1000 to 10000 nM.
Turning to `CNC(=O)c1ccc(Nc2nc(OC3CCCC3)c3c(-c4ccc5oc(C)nc5c4)c[nH]c3n2)c(OC)c1` [Example 35, 4-(4-(cyclopentyloxy)-5-(2-methylbenzo[d]oxazol-5-yl)-7H-pyrrolo[2,3-d]pyrimidin-2-ylamino)-3-methoxy-N-methylbenzamide], the IC50 lay within 1000 to 10000 nM.
On to `COc1cc(C(=O)NC2CC(O)C2)ccc1Nc1nc(OC2CCCC2)c2c(-c3ccc4nc(C)oc4c3)c[nH]c2n1` (stereo not drawn) [Example 238, 4-(4-(cyclopentyloxy)-5-(2-methylbenzo[d]oxazol-6-yl)-7H-pyrrolo[2,3-d]pyrimidin-2-ylamino)-N-((1s,3s)-3-hydroxycyclobutyl)-3-methoxybenzamide], for which the IC50 is below 100 nM.
The figure for `Cc1nc2ccc(-c3c[nH]c4nc(Nc5ccc(C(=O)N(C)C)cc5C)nc(O[C@H]5CC[C@H](O)CC5)c34)cc2o1` [Example 92, 4-(4-((1r,4r)-4-hydroxycyclo-hexyloxy)-5-(2-methylbenzo[d]oxazol-6-yl)-7H-pyrrolo[2,3-d]pyrimidin-2-ylamino)-N,N,3-trimethylbenzamide] is below 100 nM; for `CNS(=O)(=O)c1ccc(Nc2nc(OC3CCOCC3)c3c(-c4ccc5nc(C)oc5c4)c[nH]c3n2)c(OC)c1` [Example 219, 3-methoxy-N-methyl-4-(5-(2-methylbenzo[d]oxazol-6-yl)-4-(tetrahydro-2H-pyran-4-yloxy)-7H-pyrrolo[2,3-d]pyrimidin-2-ylamino)benzenesulfonamide] it is 100 to 400 nM.
With `COc1cc(C(=O)NC[C@H]2CCCO2)ccc1Nc1nc(OC2CCCC2)c2c(-c3ccc4nc(C)oc4c3)c[nH]c2n1` [Example 242, (R)-4-(4-(cyclopentyloxy)-5-(2-methylbenzo[d]oxazol-6-yl)-7H-pyrrolo[2,3-d]pyrimidin-2-ylamino)-3-methoxy-N-((tetrahydrofuran-2-yl)methyl)benzamide], the IC50 lay in the range of 100 to 400 nM.
Take `Cc1nc2ccc(-c3c[nH]c4nc(Nc5ccc(C(=O)N(C)C)cc5C)nc(OC5CCN(C)CC5)c34)cc2o1` [Example 95, N,N,3-trimethyl-4-(5-(2-methylbenzo[d]oxazol-6-yl)-4-(1-methylpiperidin-4-yloxy)-7H-pyrrolo[2,3-d]pyrimidin-2-ylamino)benzamide]: the IC50 is 400 to 1000 nM.
`CNC(=O)c1ccc(Nc2nc(OC3CCOCC3)c3c(-c4cn[nH]c4)c[nH]c3n2)c(OC)c1` [Example 122, 4-(5-(1H-pyrazol-4-yl)-4-(tetrahydro-2H-pyran-4-yloxy)-7H-pyrrolo[2,3-d]pyrimidin-2-ylamino)-3-methoxy-N-methylbenzamide]: the IC50 was below 100 nM.
Under `CNC(=O)c1ccc(Nc2nc(OC)c3c(-c4ccnc(C)c4)c[nH]c3n2)c(OC)c1` [Example 166, 3-methoxy-4-(4-methoxy-5-(2-methylpyridin-4-yl)-7H-pyrrolo [2,3-d]pyrimidin-2-ylamino)-N-methylbenzamide] stands below 100 nM; under `CCOc1nc2ccc(-c3c[nH]c4nc(Nc5ccc(C(=O)NC)cc5OC)nc(OC5CCCC5)c34)cc2o1` [Example 293, 4-(4-(cyclopentyloxy)-5-(2-ethoxybenzo[d]oxazol-6-yl)-7H-pyrrolo[2,3-d]pyrimidin-2-ylamino)-3-methoxy-N-methylbenzamide], 100 to 400 nM.
Consider `CNC(=O)c1ccc(Nc2nc(OC(C)C)c3c(-c4cccc(S(C)(=O)=O)c4)c[nH]c3n2)c(OC)c1` [Example 187, 4-(4-isopropoxy-5-(3-(methylsulfonyl)phenyl)-7H-pyrrolo[2,3-d]pyrimidin-2-ylamino)-3-methoxy-N-methylbenzamide], for which the IC50 lay within 100 to 400 nM.
The figure for `Cc1cc(C(=O)N(C)C)ccc1Nc1nc(OC2CCOCC2)c2c(-c3cnn(C)c3)c[nH]c2n1` [Example 112, N,N,3-trimethyl-4-(5-(1-methyl-1H-pyrazol-4-yl)-4-(tetrahydro-2H-pyran-4-yloxy)-7H-pyrrolo[2,3-d]pyrimidin-2-ylamino)benzamide] is below 100 nM; for `COc1cc(C(=N)N)ccc1Nc1nc(OC2CCCC2)c2c(-c3ccc4nc(C)oc4c3)c[nH]c2n1` [Example 287, 4-(4-(cyclopentyloxy)-5-(2-methylbenzo[d]oxazol-6-yl)-7H-pyrrolo[2,3-d]pyrimidin-2-ylamino)-3-methoxybenzimidamide] it is 1000 to 10000 nM.
